Key:
[1] = Solubility of TH-302 by the saturated solution method (HPLC, external standard); format: physicochemical
Experimental: The solubility is measured in an experiment by the saturated solution method; that is, the solid TH-302 was directly charged into the solvent until insoluble matter or turbidity appears. After clarification for a period of time, the solution was directly filtered. The clarified filtrate was taken directly for determination of the concentration of TH-302. The resulting concentration is exactly the solubility of TH-302 in this solvent system. Please refer to Tables 1, 2, and 3 for specific solubility data.
For the method for measuring the concentration of TH-302 (mg/ml), please refer to the HPLC method described in the patent WO2008083101A1 owned by Threshold Pharmaceuticals Inc. (see Example 2. An Ethanol Formulation of TH302, for details); and the external standard method was used for quantification.

[2] = Saturated solubility of the drug in D5W solution (strong shaking); format: physicochemical; conditions: left to stand at room temperature for 24 hours
Experimental: The TH-302 sample was weighed accurately in an amount of about 60 mg, placed in a transparent vial, and added with 6 ml of dextrose 5% in water (D5W). The resulting solution was shaked vigorously for 2 minutes to obtain a solubility-stock solution. It was observed that the solubility-stock solution contained insoluble substances. Thus, the solubility-preserving solution was filtered and then became clear. […] This value was exactly the saturated solubility of the drug in D5W solution.

[3] = concentrate with 70% ethanol, 25% dimethlyacetamide, 5% polysorbate 80; mainly induced by dimethlyacetamide; WO2015013448A1; cited from earlier work

## Cn1c(COP(=O)(NCCBr)NCCBr)cnc1[N+](=O)[O-] [TH-302]
[1]; 1% Tween 80 aqueous solution (volume ratio)
  Solubility: 7210 µg/mL
[1]; 95% tert-butanol/5% ethanol (volume ratio), TH-302 purchased commercially
  Solubility: 9980 µg/mL
[2]
  Appearance of the filtered filtrate: still clear
[3]
  TH-302 administration reactions: lip swelling and urticaria
